This is an account of results in PMC11274453, “Structural and Thermodynamic Insights into Dimerization Interfaces of Drosophila Glutathione Transferases” (Biomolecules, 2024).

Data set [1] addresses T1, DmGSTE1 (Drosophila melanogaster, UniProt Q7KK90).
T1 construct: gene GstE1; recombinant, codon-optimized gene in pET28a (NdeI/SacI), E. coli; homodimer; residues Ser2-Asp223 described in the structure
T1 sequence (Q7KK90 1-224): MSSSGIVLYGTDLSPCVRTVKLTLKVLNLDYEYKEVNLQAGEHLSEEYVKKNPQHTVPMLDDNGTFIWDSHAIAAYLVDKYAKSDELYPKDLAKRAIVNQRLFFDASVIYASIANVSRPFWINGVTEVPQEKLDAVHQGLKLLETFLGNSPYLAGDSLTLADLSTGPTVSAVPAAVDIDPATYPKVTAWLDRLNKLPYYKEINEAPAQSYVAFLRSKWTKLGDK
Description: spectrophotometric CDNB conjugation, […] nm, Michaelis-Menten fit. The data set is classed as biochemical. The following applies: 2 mM GSH; 100 mM sodium phosphate pH 6.5; 25 °C; 50 nM enzyme.

Data set [2] addresses T1, DmGSTE1. The experiment in a line: X-ray crystal structure, […] Å. The data set is classed as binding. Particulars: G site; mixture with reduced glutathione at equal occupancies; sulfoxide H-bonds Ser14.
Data set [3] concerns the molecule itself. The experiment in a line: crystal structure; sitting-drop vapour diffusion at 4 °C; 15 mg/mL DmGSTE1 in 20 mM Tris-HCl pH 7.4; 20% w/v PEG 8000, 100 mM MES pH 6.0, 200 mM Ca acetate; space group P212121, one dimer in the asymmetric unit; glutathione bound.

With `O=[N+]([O-])c1ccc(Cl)c([N+](=O)[O-])c1` [CDNB, 1-chloro-2,4-dinitrobenzene], the Km at DmGSTE1 [1] amounted to 15 ± 4 µM.

Turning to `N[C@@H](CCC(=O)N[C@@H](CSO)C(=O)NCC(=O)O)C(=O)O` [GS8], the “X-ray crystal structure, 1.80 Å” value at DmGSTE1 [2] was “occupied by a mixture of glutathione and glutathione sulfoxide refined with equal occupancies”.

B1: Drosophila melanogaster GSTE1 (enzyme)
chain: MSSSGIVLYGTDLSPCVRTVKLTLKVLNLDYEYKEVNLQAGEHLSEEYVKKNPQHTVPMLDDNGTFIWDSHAIAAYLVDKYAKSDELYPKDLAKRAIVNQRLFFDASVIYASIANVSRPFWINGVTEVPQEKLDAVHQGLKLLETFLGNSPYLAGDSLTLADLSTGPTVSAVPAAVDIDPATYPKVTAWLDRLNKLPYYKEINEAPAQSYVAFLRSKWTKLGDK
notes: Glutathione S-transferase E1 (Epsilon class), Drosophila melanogaster; the crystal model is described as Ser2-Tyr88 (N-terminal thioredoxin domain) and Pro89-Asp223 (C-terminal domain); Cloned in pET28a between NdeI and SacI; Crystallised with glutathione / glutathione sulfoxide in the G site; also called DmGSTE1; source: E. coli, purified (GSTrap Fast Flow, eluted with 10 mM reduced glutathione, …)
Turning to B1, the “stoichiometry N” value in data set [3] turned out to be 2.

For orientation: Km means the substrate concentration at which the rate is half of its maximum. As usually defined, the stoichiometry N is the number of molecules, sites or subunits per partner or assembly.
